Values joined by “and” are separate entries in the source; they are usually repeats but may differ in a detail not shown here. Identical values can stand only once. Toxic doses and inconclusive results are not listed. No stated cut-off is given here; in the data, active means T/C of 150% or more; inactive means T/C below 125%.
Test system: L1210 leukemia ip in BDF1 mice, survival T/C
Test: NCI In Vivo Anticancer Drug Screen. Data for tumor model L1210 Leukemia (intraperitoneal) in B6D2F1 (BDF1) mice
Details: endpoint: mean survival time, higher = longer survival
Procedure, shortened: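 In this screen, tumor-bearing mice given compound are compared to those given vehicle, and their survival values are reported as a treated-to-control quotient.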

[1] = dose: 100.0 mg/kg/injection, schedule: Q01DX001 (ip), vehicle: carboxymethylcellulose (CMC)
[2] = dose: 200.0 mg/kg/injection, schedule: Q01DX001 (ip), vehicle: carboxymethylcellulose (CMC)
[3] = dose: 100.0 mg/kg/injection, schedule: Q01DX009 (ip), vehicle: Klucel (hydroxypropylcellulose) (HPC)
[4] = dose: 200.0 mg/kg/injection, schedule: Q01DX009 (ip), vehicle: Klucel (hydroxypropylcellulose) (HPC)
[5] = dose: 400.0 mg/kg/injection, schedule: Q01DX009 (ip), vehicle: Klucel (hydroxypropylcellulose) (HPC)
[6] = dose: 100.0 mg/kg/injection, schedule: Q04DX003 (ip), vehicle: Klucel (hydroxypropylcellulose) (HPC)
[7] = dose: 200.0 mg/kg/injection, schedule: Q04DX003 (ip), vehicle: Klucel (hydroxypropylcellulose) (HPC)
[8] = dose: 400.0 mg/kg/injection, schedule: Q04DX003 (ip), vehicle: Klucel (hydroxypropylcellulose) (HPC)

Measured: T/C

C[C@H]1CCC/C=C/[C@@H]2C[C@H](O)C[C@H]2[C@H](O)/C=C/C(=O)O1
inactive: [1] 105 % of control | dose: 100.0 mg/kg/injection, schedule: Q01DX001 (ip), vehicle: other 92 % of control | dose: 100.0 mg/kg/injection, schedule: Q01DX015 (ip), vehicle: water 96 % of control | [2] 103 % of control | dose: 200.0 mg/kg/injection, schedule: Q01DX001 (ip), vehicle: other 95 % of control | dose: 200.0 mg/kg/injection, schedule: Q01DX015 (ip), vehicle: water 103 % of control | dose: 400.0 mg/kg/injection, schedule: Q01DX001 (ip), vehicle: other 93 % of control

CCOCc1nc2nc(Cl)c(Cl)nc2[nH]1
inactive: dose: 25.0 mg/kg/injection, schedule: Q04DX003 (ip), vehicle: saline with Tween-80 97 % of control | dose: 50.0 mg/kg/injection, schedule: Q01DX009 (ip), vehicle: saline with Tween-80 106 % of control | dose: 50.0 mg/kg/injection, schedule: Q04DX003 (ip), vehicle: saline with Tween-80 97 % of control | dose: 100.0 mg/kg/injection, schedule: Q01DX009 (ip), vehicle: saline with Tween-80 116 % of control | dose: 100.0 mg/kg/injection, schedule: Q04DX003 (ip), vehicle: saline with Tween-80 97 % of control | dose: 200.0 mg/kg/injection, schedule: Q01DX009 (ip), vehicle: saline with Tween-80 87 % of control | dose: 200.0 mg/kg/injection, schedule: Q04DX003 (ip), vehicle: saline with Tween-80 95 % of control and 97 % of control

CC(=O)C(C)=P(c1ccccc1)(c1ccccc1)c1ccccc1
inactive: dose: 25.0 mg/kg/injection, schedule: Q01DX009 (ip), vehicle: saline 101 % of control | dose: 50.0 mg/kg/injection, schedule: Q01DX009 (ip), vehicle: saline 102 % of control | dose: 100.0 mg/kg/injection, schedule: Q01DX009 (ip), vehicle: saline 96 % of control | dose: 100.0 mg/kg/injection, schedule: Q04DX003 (ip), vehicle: saline 98 % of control | dose: 200.0 mg/kg/injection, schedule: Q04DX003 (ip), vehicle: saline 88 % of control | dose: 400.0 mg/kg/injection, schedule: Q04DX003 (ip), vehicle: saline 88 % of control

CCCCCCCCCCCCCCCCn1cnc2c(N)ncnc21
inactive: dose: 12.5 mg/kg/injection, schedule: Q01DX005 (ip), vehicle: other 104 % of control | dose: 25.0 mg/kg/injection, schedule: Q01DX005 (ip), vehicle: other 96 % of control | dose: 50.0 mg/kg/injection, schedule: Q01DX005 (ip), vehicle: other 101 % of control | dose: 100.0 mg/kg/injection, schedule: Q01DX005 (ip), vehicle: other 96 % of control | dose: 200.0 mg/kg/injection, schedule: Q01DX005 (ip), vehicle: other 95 % of control

Nc1nc2nc(-c3ccccc3)nc(N)c2nc1-c1ccc(N(CCCl)CCCl)cc1
inactive: dose: 50.0 mg/kg/injection, schedule: Q01DX001 (ip), vehicle: carboxymethylcellulose (CMC) 98 % of control | [1] 95 % of control | [2] 101 % of control | dose: 400.0 mg/kg/injection, schedule: Q01DX001 (ip), vehicle: carboxymethylcellulose (CMC) 98 % of control

CCOC(=O)c1c(-c2ccc([N+](=O)[O-])cc2)c(C#N)n(-c2ccccc2)c1C
inactive: dose: 100.0 mg/kg/injection, schedule: Q04DX002 (ip), vehicle: Klucel (hydroxypropylcellulose) (HPC) 95 % of control | dose: 200.0 mg/kg/injection, schedule: Q04DX002 (ip), vehicle: Klucel (hydroxypropylcellulose) (HPC) 92 % of control | dose: 400.0 mg/kg/injection, schedule: Q04DX002 (ip), vehicle: Klucel (hydroxypropylcellulose) (HPC) 103 % of control

C[CH2][Sn]([I])([CH2]C)[CH2]C
inactive: dose: 1.56 mg/kg/injection, schedule: Q01DX009 (ip), vehicle: saline 92 % of control | dose: 3.13 mg/kg/injection, schedule: Q01DX009 (ip), vehicle: saline 94 % of control | dose: 6.25 mg/kg/injection, schedule: Q01DX009 (ip), vehicle: saline 89 % of control | dose: 25.0 mg/kg/injection, schedule: Q04DX002 (ip), vehicle: gum acacia 87 % of control

O=CC(S)CO (stereo not drawn)
inactive: dose: 200.0 mg/kg/injection, schedule: Q01DX001 (ip), vehicle: saline 103 % of control | dose: 400.0 mg/kg/injection, schedule: Q01DX001 (ip), vehicle: saline 97 % of control | dose: 800.0 mg/kg/injection, schedule: Q01DX001 (ip), vehicle: saline 108 % of control

CCNCCCNc1ccnc2cc(Cl)ccc12
inactive: dose: 10.0 mg/kg/injection, schedule: Q01DX001 (ip), vehicle: saline 96 % of control | dose: 20.0 mg/kg/injection, schedule: Q01DX001 (ip), vehicle: saline 98 % of control | dose: 40.0 mg/kg/injection, schedule: Q01DX001 (ip), vehicle: saline 93 % of control

COc1ccccc1/C(=C/c1ccc([N+](=O)[O-])cc1)C(=O)Nc1ccc(S(=O)(=O)F)cc1
inactive: [3] 103 % of control | [4] 92 % of control | [5] 100 % of control

COc1cc2cccc(OC)c(=O)c2c(O)c1OC
inactive: dose: 25.0 mg/kg/injection, schedule: Q01DX009 (ip), vehicle: Klucel (hydroxypropylcellulose) (HPC) 92 % of control | dose: 50.0 mg/kg/injection, schedule: Q01DX009 (ip), vehicle: Klucel (hydroxypropylcellulose) (HPC) 96 % of control | [3] 92 % of control and 106 % of control | [6] 101 % of control | [7] 92 % of control | [8] 99 % of control

Clc1ccc(N=Cc2ccc3c(c2)OCO3)cc1
inactive: dose: 100.0 mg/kg/injection, schedule: Q01DX009 (ip), vehicle: other 93 % of control | dose: 200.0 mg/kg/injection, schedule: Q01DX009 (ip), vehicle: other 98 % of control | dose: 400.0 mg/kg/injection, schedule: Q01DX009 (ip), vehicle: other 90 % of control

CN(C)c1ccc(/C=N\NC(=O)N/N=C/c2ccc(N(C)C)cc2)cc1
inactive: dose: 25.0 mg/kg/injection, schedule: Q01DX001 (ip), vehicle: Klucel (hydroxypropylcellulose) (HPC) 92 % of control | dose: 50.0 mg/kg/injection, schedule: Q01DX001 (ip), vehicle: Klucel (hydroxypropylcellulose) (HPC) 97 % of control | dose: 100.0 mg/kg/injection, schedule: Q01DX001 (ip), vehicle: Klucel (hydroxypropylcellulose) (HPC) 97 % of control and 90 % of control

CCOC(=O)/C(C#N)=C/c1cccn1Cc1ccc2c(c1)OCO2
inactive: dose: 25.0 mg/kg/injection, schedule: Q04DX002 (ip), vehicle: saline 101 % of control | dose: 50.0 mg/kg/injection, schedule: Q04DX002 (ip), vehicle: saline 105 % of control | dose: 100.0 mg/kg/injection, schedule: Q04DX002 (ip), vehicle: saline 105 % of control

CCOC(=O)/C(C#N)=C/c1ccc(O)c(OC)c1
inactive: [3] 101 % of control | [6] 102 % of control | [4] 94 % of control | [7] 96 % of control | [5] 89 % of control | [8] 95 % of control

CCCCOC(=O)CCl
inactive: dose: 100.0 mg/kg/injection, schedule: Q04DX002 (ip), vehicle: saline with Tween-80 100 % of control | dose: 200.0 mg/kg/injection, schedule: Q04DX002 (ip), vehicle: saline with Tween-80 107 % of control
